Like-named read-outs stand apart in the source and are kept apart here.
Assays:
[1] = tested on: EBOV_FL: full-length Ebola Zaire GP (VSV pseudotype); assay: microbe, parasite or virus in culture; assay type: cell-based, Zaire ebolavirus; details: Zaire ebolavirus, Vero, 24 h, read-out: EC50 Pseudotype Assays EBOV_FL
[2] = tested on: MARV (full-length glycoprotein, VSV pseudotype); assay: microbe, parasite or virus in culture; assay type: cell-based, Marburg marburgvirus; details: Vesicular stomatitis virus, Vero, 24 h, read-out: EC50 Pseudotype Assays MARV
[3] = tested on: EBOV (mucin-deleted glycoprotein, VSV pseudotype); assay: microbe, parasite or virus in culture; assay type: cell-based, Zaire ebolavirus; details: read-out: EC50 Pseudotype Assays EBOV
[4] = tested on: VSV (native full-length glycoprotein); assay: microbe, parasite or virus in culture; assay type: cell-based; details: Vesicular stomatitis virus, Vero, read-out: EC50 Pseudotype Assays VSV
in vitro [5] = details: African green monkey, Cytotox CC50
[6] = tested on: SUDV (glycoprotein, VSV pseudotype); assay: microbe, parasite or virus in culture; assay type: cell-based, Sudan ebolavirus; details: read-out: EC50 Pseudotype Assays SUDV
[7] = tested on: BDBV (mucin-deleted glycoprotein, VSV pseudotype); assay: microbe, parasite or virus in culture; assay type: cell-based, Bundibugyo ebolavirus; details: read-out: EC50 Pseudotype Assays BDBV
Ebola Zaire [8] = assay: microbe, parasite or virus in culture; details: Zaire ebolavirus, HeLa, read-out: Ebola Zaire EC50
Ebola Zaire [9] = tested on: Ebola Zaire
[10] = microsomes, 1 h
[11] = microsomes, 1 h; remark: listed apart in the source
Sudan Gulu [12] = tested on: Sudan Gulu
Sudan Gulu [13] = assay: organism not typed; details: HeLa, read-out: Sudan Gulu EC50
[14] = microsomes, 1 h; remark: listed apart in the source
[15] = microsomes, 1 h; remark: listed apart in the source
Ebola Zaire [16] = tested on: Ebola Zaire; remark: listed apart in the source
Ebola Zaire [17] = assay: microbe, parasite or virus in culture; details: Zaire ebolavirus, read-out: Ebola Zaire EC50
Ebola Zaire [18] = assay: microbe, parasite or virus in culture; details: Zaire ebolavirus, read-out: Ebola Zaire EC90
Vero cells = details: African green monkey
in vitro [19] = details: African green monkey
EBOV (Mayinga) = assay: microbe, parasite or virus in culture; assay type: cell-based, Ebola virus; details: for EC50: Zaire ebolavirus, Vero
[20] = Vesicular stomatitis virus, Vero, 24 h

SMILES | EC50 [1] | EC50 [2] | EC50 ([3]; Zaire ebolavirus, Vero, 24 h) | EC50 [4] | CC50 (in vitro [5]) | EC50 [6, 20] | EC50 [7, 20] | EC50 (Ebola Zaire [8]) | Liver Microsome Stability % Remaining after 60 Minutes, Monkey [11] | Sudan Gulu SI (CC50/EC50) (Sudan Gulu [12]) | EC50 (Sudan Gulu [13]) | Liver Microsome Stability % Remaining after 60 Minutes, Human [14] | Liver Microsome Stability % Remaining after 60 Minutes, Mouse [15] | further results
CC12CC3CC(C(=O)NC4CCNCC4)(C1)CC(c1ccccc1)(C3)C2 (racemic) [Example A1] | 40 nM | 2800 nM | 42 nM | > 10000 nM | 16100 nM | 380 nM | 160 nM | – | – | – | – | – | – | –
CC12CC3CC(C(=O)N[C@H]4CC[C@H](CN)CC4)(C1)CC(c1ccccc1)(C3)C2 (mixture of isomers) [Example A3] | 40 nM | 7000 nM | 26 nM | > 10000 nM | 8000 nM | 30 nM | 95 nM | – | – | – | – | – | – | –
C[C@H]1C[C@@H](NC(=O)C23CC4CC(C)(C2)CC(c2ccccc2)(C4)C3)CCN1 (mixture of isomers) [Example A4] | 25 nM | 7100 nM | 22 nM | > 10000 nM | 11700 nM | 730 nM | 198 nM | – | – | – | – | – | – | –
CC12CC3CC(C(=O)N[C@@H]4CCNC[C@H]4F)(C1)CC(c1ccccc1)(C3)C2 (mixture of isomers) [Example A5] | 30 nM | 4880 nM | 50 nM | > 10000 nM | 11300 nM | 410 nM | 190 nM | – | – | – | – | – | – | –
CC12CC3CC(C(=O)N4CCC(N)C(C)(C)C4)(C1)CC(c1ccccc1)(C3)C2 (racemic) [Example A35] | 20 nM | – | 10 nM | – | 10200 nM | 80 nM | 71 nM | 1140 nM | 22% | 136 | 140 nM | 97% | 42% | Ebola Zaire SI (CC50/EC50) (Ebola Zaire [9]): 29; Liver Microsome Stability % Remaining after 60 Minutes, Guinea Pig [10]: 45%
CC12CC3CC(C(=O)N4CCC5(CC4)CNC5)(C1)CC(c1ccccc1)(C3)C2 (racemic) [Example A48] | 140 nM | – | 14 nM | – | 13700 nM | 35 nM | 35 nM | – | 22% | – | – | 46% | 76% | Liver Microsome Stability % Remaining after 60 Minutes, Guinea Pig [10]: 87%
CC12CC3CC(C(=O)N[C@H]4CN5CCC4CC5)(C1)CC(c1ccccc1)(C3)C2 (mixture of isomers) [Example A58] | 70 nM | 282 nM | 74 nM | > 10000 nM | 7200 nM | 383 nM | 198 nM | – | – | – | – | – | – | –
CC12CC3CC(CN4CCC(N)CC4)(C1)CC(c1ccccc1)(C3)C2 (stereo not drawn) [Example A69] | – | 950 nM | 321 nM | – | 2200 nM | 290 nM | 163 nM | 440 nM | 68% | 58 | 70 nM | 98% | 100% | Ebola Zaire SI (CC50/EC50) (Ebola Zaire [9]): 16; Liver Microsome Stability % Remaining after 60 Minutes, Guinea Pig [10]: 65%
C[C@@]12CC3CC(C(=O)NC4CCNCC4)(CC(c4ccccc4)(C3)C1)C2 [Example B1] | 10 nM | > 3000 nM | 34 nM | – | 12300 nM | 250 nM | 238 nM | 640 nM | 83% | 285 | 120 nM | 81% | 87% | Ebola Zaire SI (CC50/EC90) (Ebola Zaire [16]): >48; EC50 (Ebola Zaire [17]): > 3200 nM; Ebola Zaire SI (CC50/EC50) (Ebola Zaire [9]): 51; EC90 (Ebola Zaire [18]): 2100 nM
C[C@]12CC3CC(C(=O)N[C@H]4CC[C@H](CN)CC4)(C1)C[C@@](c1ccccc1)(C3)C2 [Example B3] | 10 nM | 3600 nM | 9 nM | – | 6110 nM | 230 nM | 114 nM | 570 nM | 61% | 119 | 120 nM | 83% | 27% | Ebola Zaire SI (CC50/EC90) (Ebola Zaire [16]): 23; EC50 (Ebola Zaire [17]): 430 nM; EC90 (Ebola Zaire [18]): 600 nM
C[C@H]1C[C@@H](NC(=O)C23CC4C[C@@](C)(C2)C[C@](c2ccccc2)(C4)C3)CCN1 [Example B4] | – | > 3000 nM | – | – | 22500 nM | – | – | 620 nM | 54% | 155 | 150 nM | 82% | 92% | Ebola Zaire SI (CC50/EC90) (Ebola Zaire [16]): >35; EC50 [3]: 13 nM; Ebola Zaire SI (CC50/EC50) (Ebola Zaire [9]): 54; EC90 (Ebola Zaire [18]): 2900 nM; EC50 [6]: 166 nM; EC50 [7]: 104 nM
CC1(C)CN(C(=O)C23CC4C[C@@](C)(C2)C[C@](c2ccccc2)(C4)C3)CC[C@@H]1N [Example B13] | – | – | 14 nM | – | 11300 nM | 40 nM | 71 nM | – | 32% | – | – | 85% | 51% | Liver Microsome Stability % Remaining after 60 Minutes, Guinea Pig [10]: 50%
C[C@H]1C[C@@H](NC(=O)C23CC4C[C@@](C)(C2)C[C@](c2ccccc2)(C4)C3)CCN1 [Example B15] | – | – | – | – | – | – | – | – | – | – | – | – | – | CC50 (Vero cells): 14800 nM; EC50 [3]: 35 nM; EC50 [6]: 610 nM; EC50 [7]: 210 nM
C[C@]12CC3CC(C(=O)N[C@H]4CN5CCC4CC5)(C1)C[C@@](c1ccccc1)(C3)C2 [Example B58] | – | 1680 nM | 36 nM | – | 8000 nM | 220 nM | 230 nM | 900 nM | – | 157 | 150 nM | – | – | Ebola Zaire SI (CC50/EC90) (Ebola Zaire [16]): 6.5; EC50 (Ebola Zaire [17]): 400 nM; EC90 (Ebola Zaire [18]): 4400 nM; CC50 (in vitro [19]): 25700 nM; SI50 (CC50/EC50) (EBOV (Mayinga)): 64; EC50 (EBOV (Mayinga)): 400 nM
C[C@@]12CC3CC(C(=O)N[C@H]4CC[C@@H](N)CC4)(C1)C[C@](c1ccccc1)(C3)C2 [Example C2] | 209 nM | 8720 nM | 135 nM | – | 25500 nM | 767 nM | 252 nM | – | – | – | – | – | – | CC50 (in vitro [19]): 21400 nM; SI50 (CC50/EC50) (EBOV (Mayinga)): 8; EC50 (EBOV (Mayinga)): 2670 nM

Source: US11548893B2 (priority 2017, dated 2023)
